Measurements reported in patent US20250387419A1, “PARP INHIBITOR-RESISTANT PATIENT TREATED WITH TH-302” (ASCENTAWITS PHARMACEUTICALS, LTD., priority 2021, published 2025).
Where “and” joins values, the source holds several entries; their conditions need not be identical. Equal entries are not always repeated. Entries after “also recorded” stand apart in the source; their conditions may differ.

Key:
[1] = Safety (body weight) in Capan-1 CDX model (3.1); assay type: in vivo; design: Body weight: unit: g; conditions: for Body weight / Body weight change percentage: olaparib 100 mg/kg p.o. QD×30, TH-302 75 mg/kg i.v. QW×3
Experimental: Each nude female BALB/c mouse was subcutaneously inoculated at a lower portion of the right back with 5×10^5 Capan-1 cells resuspended in a 1:1 mixture of PBS and matrigel (0.1 ml per mouse). A total of 64 female mice were inoculated. The inoculation was conducted on Jun. […] The test drug olaparib group was orally and intragastrically administered, once daily for a total of 30 days. Efficacy was evaluated based on relative tumor growth inhibition (TGI) rates (%), and safety was evaluated based on body weight changes and deaths of the animals.

[2] = test system: human pancreatic cancer Capan-1 subcutaneous xenograft model; assay: In-depth efficacy in olaparib-resistant pancreatic cancer Capan-1 CDX model (3.2); assay type: in vivo, mouse; conditions: Group 2: 100 mg/kg p.o. QD×30
Experimental: Protocol: Nude BALB/c mice were subcutaneously inoculated with human pancreatic cancer Capan-1 cells, establishing a human pancreatic cancer subcutaneous xenograft model. The mice were divided into 7 groups, 6 in each group: 100 mg/kg of the test drug olaparib as a monotherapy (Group 2); 50 mg/kg of TH-302 as a monotherapy (Group 3, QD); 100 mg/kg of TH-302 as a monotherapy (Group 4); 50 mg/kg of TH-302 as a monotherapy (Group 5, QW); 25 mg/kg of TH-302 as a monotherapy (Group 6); 25 mg/kg TH-302 in combination therapy with 100 mg/kg olaparib (Group 7); and 10% anhydrous ethanol+10% polyoxyethylene (35) castor oil+80% glucose injection solution D5W (pH 7.4) as a vehicle control (Group 1). The vehicle control group and the TH-302 test groups were all administered through tail vein injection. The 50 mg/kg TH-302 monotherapy group (Group 3, QD) was administered once daily for 3 consecutive days. After rest for 4 days and two weeks, the mice were again administered daily for another 3 consecutive days. TH-302 in all the 100 mg/kg (Group 4, QW), 50 mg/kg (Group 5, QW) and 25 mg/kg (Group 6, QW) TH-302 monotherapy groups and 25 mg/kg TH-302+100 mg/kg olaparib combination therapy group (Group 7) was administered once weekly for a total of three weeks. The test drug olaparib in all the groups was orally and intragastrically administered once daily for totally 30 days. Routes of administration, doses and regimens for the human pancreatic cancer Capan-1 animal model are specifically summarized in Table 12.
Tumor growth of the treatment and control groups on different days in the experiment were recorded and shown in Table 13, and corresponding tumor volume growth curves of the mice in respective groups are shown in FIG. 7. Efficacy evaluation was conducted based on relative tumor proliferation rates and relative tumor growth inhibition rates, and the results of efficacy analysis are summarized in Table 14. Body weight changes of the treatment and control groups after administration were recorded to investigate safety of the groups in the human pancreatic cancer Capan-1 subcutaneous model. Body weight change rates of the mice on Day 43 are shown in Table 15, and curves showing body weights of the treatment groups over time are plotted in FIG. 8.
A relative tumor proliferation rate, denoted as T/C %, is calculated as a relative tumor volume or a tumor weight of a treatment group as a percentage of that of the control group at a certain point of time according to:
T/C %=TRTV/CRTV×100% (where TRTV denotes average RTV of the treatment group; CRTV represents average RTV of the vehicle control group; and RTV=Vt/V0, where V0 is a tumor volume of an animal at the time of randomization, and Vt is a tumor volume of the animal after treatment); or
T/C %=TTW/CTW×100% (where TTW is an average tumor weight of the treatment group at the end of the experiment, and CTW is an average tumor weight of the vehicle control group at the end of the experiment).
A relative tumor growth inhibition rate, denoted as TGI (%), is calculated according to: TGI %=(1−T/C)×100% (where T and C are relative tumor volumes (RTV) or tumor weights (TW) of a treatment group and the control group, respectively, at a particular point of time).

Q: For `O=C(c1cc(Cc2n[nH]c(=O)c3ccccc23)ccc1F)N1CCN(C(=O)C2CC2)CC1` [olaparib], which Body weight ([1]; Day 5) is on record?
A: The Body weight was 22.8.

Q: What about the “Body weight change percentage” value ([1]; Day 5) of the same compound?
A: The value was 0.00%.

Q: And the Body weight ([1]; Day 6)?
A: Its Body weight is 22.5.

Q: What about the “Body weight change percentage” value ([1]; Day 6) of the same compound?
A: Its value is −1.18%.

Q: What about the Body weight ([1]; Day 7) of the same compound?
A: Its Body weight is 22.6.

Q: And the “Body weight change percentage” value ([1]; Day 7)?
A: Its value is −0.91%.

Q: What about the Body weight ([1]; Day 8) of the same compound?
A: The Body weight was 22.7.

Q: What about the “Body weight change percentage” value ([1]; Day 8) of the same compound?
A: The value was −0.35%.

Q: And the Body weight ([1]; Day 9)?
A: The Body weight was 22.6.

Q: What about the “Body weight change percentage” value ([1]; Day 9) of the same compound?
A: The value was −0.82%.

Q: What about the Body weight ([1]; Day 10) of the same compound?
A: The Body weight was 23.0.

Q: And the “Body weight change percentage” value ([1]; Day 10)?
A: The value was 1.04%.

Q: And the Body weight ([1]; Day 11)?
A: Its Body weight is 22.7.

Q: What about the “Body weight change percentage” value ([1]; Day 11) of the same compound?
A: The value was −0.25%.

Q: What about the Body weight ([1]; Day 12) of the same compound?
A: Its Body weight is 22.7.

Q: What about the “Body weight change percentage” value ([1]; Day 12) of the same compound?
A: Its value is −0.61%.

Q: And the Body weight ([1]; Day 13)?
A: Its Body weight is 23.3.

Q: What about the “Body weight change percentage” value ([1]; Day 13) of the same compound?
A: Its value is 2.18%.

Q: What about the Body weight ([1]; Day 14) of the same compound?
A: Its Body weight is 23.2.

Q: What about the “Body weight change percentage” value ([1]; Day 14) of the same compound?
A: The value was 1.87%.

Q: What about the Body weight ([1]; Day 15) of the same compound?
A: Its Body weight is 23.2.

Q: What about the “Body weight change percentage” value ([1]; Day 15) of the same compound?
A: The value was 1.86%.

Q: What about the Body weight ([1]; Day 16) of the same compound?
A: Its Body weight is 23.3.

Q: And the “Body weight change percentage” value ([1]; Day 16)?
A: The value was 2.16%.

Q: What about the Body weight ([1]; Day 17) of the same compound?
A: Its Body weight is 23.

Q: What about the “Body weight change percentage” value ([1]; Day 17) of the same compound?
A: The value was 1.43%.

Q: And the Body weight ([1]; Day 18)?
A: Its Body weight is 23.6.

Q: What about the “Body weight change percentage” value ([1]; Day 18) of the same compound?
A: The value was 3.45%.

Q: What about the Body weight ([1]; Day 19) of the same compound?
A: The Body weight was 23.5.

Q: What about the “Body weight change percentage” value ([1]; Day 19) of the same compound?
A: Its value is 3.00%.

Q: And the Body weight ([1]; Day 20)?
A: The Body weight was 23.3.

Q: And the “Body weight change percentage” value ([1]; Day 20)?
A: The value was 2.19%.

Q: What about the Body weight ([1]; Day 21) of the same compound?
A: Its Body weight is 23.4.

Q: What about the “Body weight change percentage” value ([1]; Day 21) of the same compound?
A: Its value is 2.68%.

Q: What about the Body weight ([1]; Day 22) of the same compound?
A: Its Body weight is 23.6.

Q: What about the “Body weight change percentage” value ([1]; Day 22) of the same compound?
A: The value was 3.51%.

Q: And the Body weight ([1]; Day 23)?
A: The Body weight was 23.8.

Q: What about the “Body weight change percentage” value ([1]; Day 23) of the same compound?
A: The value was 4.38%.

Q: What about the Body weight ([1]; Day 24) of the same compound?
A: Its Body weight is 23.8.

Q: What about the “Body weight change percentage” value ([1]; Day 24) of the same compound?
A: Its value is 4.47%.

Q: And the Body weight ([1]; Day 25)?
A: The Body weight was 23.7.

Q: What about the “Body weight change percentage” value ([1]; Day 25) of the same compound?
A: Its value is 3.80%.

Q: What about the Body weight ([1]; Day 26) of the same compound?
A: Its Body weight is 23.9.

Q: What about the “Body weight change percentage” value ([1]; Day 26) of the same compound?
A: The value was 4.97%.

Q: And the Body weight ([1]; Day 27)?
A: The Body weight was 24.0.

Q: What about the “Body weight change percentage” value ([1]; Day 27) of the same compound?
A: Its value is 5.39%.

Q: What about the Body weight ([1]; Day 28) of the same compound?
A: The Body weight was 24.0.

Q: What about the “Body weight change percentage” value ([1]; Day 28) of the same compound?
A: Its value is 5.29%.

Q: What about the Body weight ([1]; Day 29) of the same compound?
A: The Body weight was 23.7.

Q: And the “Body weight change percentage” value ([1]; Day 29)?
A: Its value is 4.05%.

Q: And the Body weight ([1]; Day 30)?
A: The Body weight was 23.9.

Q: What about the “Body weight change percentage” value ([1]; Day 30) of the same compound?
A: The value was 4.85%.

Q: And the Body weight ([1]; Day 31)?
A: Its Body weight is 24.5.

Q: And the “Body weight change percentage” value ([1]; Day 31)?
A: Its value is 7.24%.

Q: And the Body weight ([1]; Day 32)?
A: Its Body weight is 24.3.

Q: And the “Body weight change percentage” value ([1]; Day 32)?
A: Its value is 6.56%.

Q: What about the Body weight ([1]; Day 33) of the same compound?
A: The Body weight was 24.4.

Q: What about the “Body weight change percentage” value ([1]; Day 33) of the same compound?
A: The value was 6.92%.

Q: And the Body weight ([1]; Day 34)?
A: The Body weight was 24.3.

Q: What about the “Body weight change percentage” value ([1]; Day 34) of the same compound?
A: Its value is 6.71%.

Q: What about the Body weight ([1]; Day 35) of the same compound?
A: The Body weight was 24.5.

Q: What about the “Body weight change percentage” value ([1]; Day 35) of the same compound?
A: The value was 7.26%.

Q: What about the “Body weight loss / tolerance” value ([1]; olaparib 100 mg/kg, TH-302 75 mg/kg, combination 100 + 75 mg/kg) of the same compound?
A: The value was “No significant body weight losses; also recorded: good tolerance”.

Q: What about the Tumor volume ([2]; Day 6) of the same compound?
A: Its Tumor volume is 146.72 mm^3.

Q: And the Tumor volume ([2]; Day 9)?
A: The Tumor volume was 223.17 mm^3.

Q: And the Tumor volume ([2]; Day 13)?
A: The Tumor volume was 263.96 mm^3.

Q: What about the Tumor volume ([2]; Day 16) of the same compound?
A: The Tumor volume was 314.03 mm^3.

Q: And the Tumor volume ([2]; Day 20)?
A: The Tumor volume was 373.87 mm^3.

Q: And the Tumor volume ([2]; Day 23)?
A: Its Tumor volume is 419.26 mm^3.

Q: And the Tumor volume ([2]; Day 27)?
A: The Tumor volume was 518.48 mm^3.

Q: And the Tumor volume ([2]; Day 30)?
A: Its Tumor volume is 550.33 mm^3.

Q: And the Tumor volume ([2]; Day 34)?
A: The Tumor volume was 604.32 mm^3.

Q: What about the Tumor volume ([2]; Day 37) of the same compound?
A: Its Tumor volume is 725.18 mm^3.

Q: What about the Tumor volume ([2]; Day 41) of the same compound?
A: Its Tumor volume is 767.49 mm^3.

Q: And the “Relative Tumor Volume (x ± S)” value ([2]; Day 43)?
A: Its value is 5.72 ± 0.54.

Q: And the “T/C (%)” value ([2]; Day 43)?
A: The value was 62.57%.

Q: And the “TGI (%)” value ([2]; Day 43)?
A: Its value is 37.43%.

Q: What about the Tumor volume ([2]; Day 43, 100 mg/kg) of the same compound?
A: The Tumor volume was 846.86 mm^3 and 846.86 ± 128.85 mm^3.

Q: What about the “CR Rate” value ([2]; Day 43, complete response, animals/group) of the same compound?
A: Its value is 0/6.
